The record followed here is patent publication US20170292066A1, “Synthetic Acid Compositions Alternatives to Conventional Acids in the Oil and Gas Industry” (Fluid Energy Group Ltd., priority 2014, published 2017).

The nature of the series: Biodegradability.

Molecules are shown by their SMILES.

For `Cl.NC(N)=O` [urea hydrochloride, Urea Hydrochloride], the Biodegradability entry is “maintain the same biodegradability function”.
